Each structure is given as a SMILES string. Where only a bound is given, the exact number is not on record here.

Data on 2 molecules can be found in patent publication US9753034B2, “Process for the identification of a compound which inhibits the binding of the first bromodomain of each of human BRD-2, BRD-3, and BRD-4” (GLAXOSMITHKLINE LLC, priority 2009, dated 2017).

Test [1] addresses T1, Bromodomain BRD-2 (1-473) (Homo sapiens, UniProt P25440).
T1 construct: Recombinant Human Bromodomains (BRD-2 (1-473), BRD-3 (1-435) and BRD-4 (1-477)); six-His tag (N); made in house; host or cells: E. coli (pET15b vector)
In words: Fluorescence Anisotropy Binding Assay, BRD-2. To be noted: displacement of fluorescent ligand (Reference compound K) 5 nM, BRD-2 75 nM; read-out: pIC50 in the BRD-2 assay (converted). How it is done:
(§1) Fluorescence Anisotropy Binding Assay
(§2) All data was normalized to the mean of 16 high and 16 low control wells on each plate. A four parameter curve fit of the following form was then applied: y=a+((b−a)/(1+(10^x/10^c)^d)
(§3) Where ‘a’ is the minimum, ‘b’ is the Hill slope, ‘c’ is the pIC50 and ‘d’ is the maximum.
(§4) The His-tagged Bromodomain was extracted from E. coli cells using 0.1 mg/ml lysozyme and sonication. […] Further purification was completed by Superdex 200 prep grade size exclusion column. Purified protein was stored at −80 C in 20 mM HEPES pH 7.5 and 100 mM NaCl.
(§5) 10 μl of this reaction mixture was added using a micro multidrop to wells containing 100 nl of various concentrations of test compound or DMSO vehicle (1% final) in Greiner 384 well Black low volume microtitre plate and equilibrated in dark 60 mins at room temperature.
Background: Polarisation of emitted light reports the rotation of a fluorescent probe.

Test [2] concerns the target T2, Bromodomain BRD-3 (1-435) (Homo sapiens, UniProt Q15059).
T2 construct: Recombinant Human Bromodomains (BRD-2 (1-473), BRD-3 (1-435) and BRD-4 (1-477)); six-His tag (N); made in house; host or cells: E. coli (pET15b vector)
In words: Fluorescence Anisotropy Binding Assay, BRD-3. To be noted: displacement of fluorescent ligand (Reference compound K) 5 nM, BRD-3 75 nM; read-out: pIC50 in the BRD-3 assay (converted). As for the experimental part:
as §1, §2, §3, §4, §5

In test [3] the target is Bromodomain BRD-4 (1-477) (Homo sapiens, UniProt O60885). Description: biochemical. Conditions: pIC50 in the BRD-4 assay, displacement of fluorescent ligand (Reference compound K) 5 nM, BRD-4 75 nM. How it is done:
as §1, §2, §3, §4, §5

T1 sequence (P25440 1-473): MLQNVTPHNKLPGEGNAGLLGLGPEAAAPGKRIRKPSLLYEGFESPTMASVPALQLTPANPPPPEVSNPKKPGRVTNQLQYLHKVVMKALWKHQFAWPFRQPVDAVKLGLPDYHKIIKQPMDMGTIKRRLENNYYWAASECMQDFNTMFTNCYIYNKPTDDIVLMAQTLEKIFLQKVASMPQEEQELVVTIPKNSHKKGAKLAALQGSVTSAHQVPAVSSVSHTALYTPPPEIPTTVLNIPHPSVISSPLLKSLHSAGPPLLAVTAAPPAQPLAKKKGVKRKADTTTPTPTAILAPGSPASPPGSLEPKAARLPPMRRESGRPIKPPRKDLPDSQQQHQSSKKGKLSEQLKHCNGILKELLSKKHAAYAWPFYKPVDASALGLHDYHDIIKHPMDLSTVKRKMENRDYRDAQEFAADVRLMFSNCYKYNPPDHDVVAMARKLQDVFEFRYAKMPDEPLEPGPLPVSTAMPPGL
T2 sequence (Q15059 1-435): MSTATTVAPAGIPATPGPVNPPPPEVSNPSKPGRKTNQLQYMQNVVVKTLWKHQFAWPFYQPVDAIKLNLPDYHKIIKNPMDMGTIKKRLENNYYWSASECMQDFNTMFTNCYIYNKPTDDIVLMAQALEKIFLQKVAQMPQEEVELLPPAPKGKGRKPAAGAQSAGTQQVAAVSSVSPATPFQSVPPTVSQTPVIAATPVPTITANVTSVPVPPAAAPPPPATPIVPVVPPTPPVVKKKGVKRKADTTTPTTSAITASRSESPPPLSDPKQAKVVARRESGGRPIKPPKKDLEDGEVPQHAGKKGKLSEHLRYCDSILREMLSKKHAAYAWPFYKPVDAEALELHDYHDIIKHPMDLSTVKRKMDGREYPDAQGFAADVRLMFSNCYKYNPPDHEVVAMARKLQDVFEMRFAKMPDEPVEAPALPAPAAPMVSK

On to `CC(=O)N1c2ccc(-c3ccc(C(=O)O)cc3)cc2[C@H](Nc2ccc(Cl)cc2)C[C@@H]1C` [Compound (II), 4-{(2S,4R)-1-acetyl-4-[(4-chlorophenyl)amino]-2-methyl-1,2,3,4-tetrahydro-6-quinolinyl}benzoic acid], for which the IC50 in test [1] and in test [2] was no more than 316 nM throughout.

As for `CNCc1ccc(-c2ccc3c(c2)[C@H](NC(=O)OC(C)C)C[C@H](C)N3C(C)=O)cc1` [Compound (IV), 1-methylethyl ((2S,4R)-1-acetyl-2-methyl-6-{4-[(methylamino)methyl]pheny}-1,2,3,4-tetrahydro-4-quinolinyl)carbamate], the IC50 in test [1], in test [2] and in test [3] was no more than 1000 nM throughout.
